# Target: T1, 5-HT 1D beta receptors (Homo sapiens, UniProt P28222)
# T1 construct: expressed in transfected cells; host or cells: CHO cells
# Test: 5-HT 1D beta binding ([3H]-5-HT displacement, homogenised CHO cells)
# Details: not given
# Method: 5-HT 1D ALPHA AND 5-HT 1D BETA BINDING.
# CHO cells expressing 5-HT 1D beta receptors (4×10^7 cells/ml) are homogenised in Tris buffer and stored in 1.5 ml aliquots.
# 0.4 ml of a cell suspension was incubated with [^3 H]-5-HT (4 nM) in Tris Mg HCl buffer (pH 7.7) and test drug, at 37° C. for 45 minutes. Each test drug was tested at 10 concentrations (0.01 mM to 0.3 nM final concentration), with non-specific binding defined using 0.01 mM 5-HT. The total assay volume was 0.5 ml. Incubation was stopped by rapid filtration using a Packard Filtermate (filters pre-soaked in 0.3% polyethylenimine) and radioactivity measured by Topcount scintillation counting. The pKi values were calculated from the IC50 generally by an iterative leas squares curve fitting programme.
# T1 sequence (P28222 whole entry): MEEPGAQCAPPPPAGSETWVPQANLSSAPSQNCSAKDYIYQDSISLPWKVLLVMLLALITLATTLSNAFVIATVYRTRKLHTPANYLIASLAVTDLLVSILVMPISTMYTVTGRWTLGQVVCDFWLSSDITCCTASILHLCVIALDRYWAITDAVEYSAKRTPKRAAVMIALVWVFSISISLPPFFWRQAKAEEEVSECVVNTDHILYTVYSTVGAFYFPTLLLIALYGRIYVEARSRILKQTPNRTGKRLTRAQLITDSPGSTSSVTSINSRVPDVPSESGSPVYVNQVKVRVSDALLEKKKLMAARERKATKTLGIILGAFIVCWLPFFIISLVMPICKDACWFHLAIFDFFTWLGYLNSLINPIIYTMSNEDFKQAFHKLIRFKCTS
row,SMILES,Ki [nM]
1,"CCN1CCC2(CC1)COc1cc3c(cc12)N(C(=O)c1ccc(-c2ccc(-c4nnc(C)o4)cc2C)cc1)CC3 [Example 26, 1'-Ethyl-5-[2'-methyl-4'-(5-methyl-1,3,4-oxadiazol-2-yl)biphenyl-4-carbonyl]-2,3,6,7-tetrahydrospiro[furo[2,3-f]indole-3,4'-piperidine]]",< 10

# Same assay, conditions: CHO cells expressing 5-HT 1D beta receptors; [3H]-5-HT (4 nM); 37° C. for 45 minutes; pKi calculated from the IC50; read-out: pKi values at 5-HT 1D beta receptors (converted)
row,SMILES,Ki [nM]
1,"CCN1CCC2(CC1)COc1cc3c(cc12)N(C(=O)c1ccc(-c2ccc(-c4noc(C)n4)cc2C)cc1)CC3 [Example 4, 1'-Ethyl-5-(2'-methyl-4'-(5-methyl-1,2,4-oxadiazol-3-yl)biphenyl-4-carbonyl)-2,3,6,7-tetrahydrospiro[furo[2,3-f]indole-3,4'-piperidine]]",< 10
2,"Cc1cc(-c2nccnn2)ccc1-c1ccc(C(=O)N2CCc3cc4c(cc32)C2(CCN(C)CC2)CO4)cc1 [Example 57, 1'-Methyl-5-[2'-methyl-4'-(1,2,4-triazin-3-yl)biphenyl-4-carbonyl]-2,3,6,7-tetrahydrospiro[furo[2,3-f]indole-3,4'-piperidine]]",< 10
3,"Cc1nnc(-c2ccc(-c3ccc(C(=O)N4CCc5cc6c(cc54)C4(CCN(C)CC4)CO6)cc3)c(C)c2)o1 [Example 5, 1'-Methyl-5-(2'-methyl-4'-(5-methyl-1,3,4-oxadiazol-2-yl)biphenyl-4-carbonyl)-2,3,6,7-tetrahydrospiro[furo[2,3-f]indole-3,4'-piperidine]]",< 10
4,"CCOC(=O)Nc1ccc(-c2ccc(C(=O)N3CCc4cc5c(cc43)C3(CCN(CC)CC3)CO5)cc2)c(C)c1 [Example 66, 5-[4'-(Ethoxycarbonylamino)-2'-methylbiphenyl-4-carbonyl]-1'-ethyl-2,3,6,7-tetrahydrospiro[furo[2,3-f]indole-3,4'-piperidine]]",< 10
5,"Cc1cc(-c2cnccn2)ccc1-c1ccc(C(=O)N2CCc3cc4c(cc32)C2(CCN(C)CC2)CO4)cc1 [Example 51, 1'-Methyl-5-(2'-methyl-4'-pyrazinylbiphenyl-4-carbonyl)-2,3,6,7-tetrahydrospiro[furo[2,3-f]indole-3,4'-piperidine]]",< 10
6,"Cc1cc(-c2cncn2C)ccc1-c1ccc(C(=O)N2CCc3cc4c(cc32)C2(CCN(C)CC2)CO4)cc1 [Example 54, 1'-Methyl-5-[2'-methyl-4'-(1-methylimidazol-5-yl)biphenyl-4-carbonyl]-2,3,6,7-tetrahydrospiro[furo[2,3-f]indole-3,4'-piperidine]]",< 10
7,"COC(=O)c1ccc(C)c(-c2ccc(C(=O)N3CCc4cc5c(cc43)C3(CCN(C)CC3)CO5)cc2)c1 [Example 23, 5-(5'-Methoxycarbonyl-2'-methylbiphenyl-4-carbonyl)-1'-methyl-2,3,6,7-tetrahydrospiro[furo[2,3-f]indole-3,4'-piperidine]]",< 10
8,"Cc1nnc(-c2ccc(-c3ccc(C(=O)N4CCc5cc6c(cc54)C4(CCO6)CCN(C)CC4)cc3)c(C)c2)o1 [Example 40, 1'-Methyl-6-[2°-methyl-4'-(5-methyl-1,3,4-oxadiazol-2-yl)biphenyl-4-carbonyl]-2,3,7,8-tetrahydrospiro[4H-pyrano[2,3-f]indole-4,4'-piperidine]]",< 10
9,"Cc1cc(-c2ccc(-c3ccc(C(=O)N4CCc5cc6c(cc54)C4(CCN(C)CC4)CO6)cc3)c(C)c2)no1 [Example 45, 1'-Methyl-5-(2'-methyl-4'-(5-methylisoxazol-3-yl)biphenyl-4-carbonyl)-2,3,6,7-tetrahydrospiro[furo[2,3-f]indole-3,4'-piperidine]]",< 10
10,"Cc1nnc(-c2ccc(-c3ccc(C(=O)n4ccc5cc6c(cc54)C4(CCN(C)CC4)CO6)cc3)c(C)c2)o1 [Example 18, 2,3-Dihydro-1'-methyl-5-(2'-methyl-4'-(5-methyl-1,3,4-oxadiazol-2-yl)biphenyl-4-carbonyl)spiro[furo[2,3-f]indole-3,4'-piperidine]]",< 10
11,"Cc1cc(-c2noc(CO)n2)ccc1-c1ccc(C(=O)N2CCc3cc4c(cc32)C2(CCN(C)CC2)CO4)cc1 [Example 55, 5-[4'-(5-Hydroxymethyl-1,2,4-oxadiazol-3-yl)-2'-methylbiphenyl-4-carbonyl]-1'-methyl-2,3,6,7-tetrahydrospiro[furo[2,3-f]indole-3,4'-piperidine]]",< 10
12,"Cc1nc(-c2ccc(-c3ccc(C(=O)n4ccc5cc6c(cc54)C4(CCN(C)CC4)CO6)cc3)c(C)c2)no1 [Example 8, 2,3-Dihydro-1'-methyl-5-(2'-methyl-4'-(5-methyl-1,2,4-oxadiazol-3-yl)biphenyl-4-carbonyl)spiro[furo[2,3-f]indole-3,4'-piperidine)]",< 10
13,"Cc1cc(-c2noc(N(C)C)n2)ccc1-c1ccc(C(=O)N2CCc3cc4c(cc32)C2(CCN(C)CC2)CO4)cc1 [Example 6, 5-(4'-(5-Dimethylamino-1,2,4-oxadiazol-3-yl)-2'-methylbiphenyl-4-carbonyl)-1'-methyl-2,3,6,7-tetrahydrospiro[furo[2,3-f]indole-3,4'-piperidine]]",< 10

# — patent US5972951A, “Tetracyclic spiro compounds, process for their preparation and their use as 5HT1D receptor antagonists” (SmithKline Beecham plc, priority 1994, dated 1999)
